Here are results for four compounds from patent publication US9187458B2, “Cyanoquinoline derivatives” (Tianjin Hemay Bio-Tech Co., LTD., priority 2010, dated 2015).

One test deals with A431 cells. The test is described as follows: A431 Cell Growth Inhibition Test (MTT Assay). Conditions: Homo sapiens, A-431, 68 h, compound 1 μM, 68 h incubation, read-out: Growth Inhibition Ratio (%). It is filed as cell-based, human. The method, then: A431 Cell Growth Inhibition Test (MTT Assay)
1. Cell strains: A431 (human epithelial […] cell strains);
Culture medium: 45% DMEM, 45% F12+10% FBS;
1. A plate (10 cm) of cells in logarithmic growth phase normally cultured was collected;
2. The culture solution was sucked out. The plate was washed with 5 ml of PBS 1-2 times;
3. PBS was sucked out, and 2 ml of 0.25% pancreatin was added to infiltrate the cells for 1 min;
4. The pancreatin was sucked out, and the culture plate was placed in an incubator. Digestion was carried out for about 15 min at 37° C.;
5. 4 ml of complete culture solution was added in the culture plate to stop the digestion. The cells were carefully scoured with micropipette (1 ml) to give a uniform cell suspension. The suspension was implanted into a 96-well cell culture plate by 2500 cells/100 μl per well. The culture plate was incubated overnight under 5% CO2 at 37° C. In day 2, 100 μl of culture solution comprising the compound was added in each well, and further incubated for 68 h under 5% CO2 at 37° C.
6. The culture solution was sucked out;
7. 100 μl of serum-free culture solution containing 0.5 mg/ml MTT was added in each well, and incubated for 4 h;
8. The culture solution was carefully sucked out;
9. 100 μl of DMSO was added into each well and vibrated to dissolve;
10. OD values were determined at 490 nM.
(§1) 1. Calculation of Relative Inhibition Ratio The inhibition ratio of a compound on cell growth=(PC−n)/(PC−NC)×100%
IC50: concentration of a compound where inhibition ratio was 50%. IC50 values were fitted with Origin7.5.

Another test relates to BT-474 cells. Briefly: BT-474 Cell Growth Inhibition Test (SRB Assay). Format: cell-based, human. Conditions: Homo sapiens, BT-474, 70 h, compound 1 μM, 70 h incubation, read-out: Growth Inhibition Ratio (%). The method, then: BT-474 Cell Growth Inhibition Test (SRB Assay)
1. Cell strains: BT-474 (human breast tumor cell strains);
2. SRB: available from Sigmaaldrich, goods number: S9012, lot number: 047K3751. SRB was reserved at the room temperature. 0.4% (w/v) of working solution was formulated with 1% of glacial acetic acid. The solution was reserved at the temperature of 4° C.; anti-tumor compounds; DMSO.
Culture medium (90% EMEM+10% FBS+0.1 mM NEAA, reserved at 4° C.);
1. A plate (10 cm) of cells in logarithmic growth phase normally cultured was collected. The culture solution was sucked out. The plate was washed with 5 mL of PBS 1-2 times;
2. PBS was sucked out, and […] of 0.25% pancreatin was added to infiltrate the cells for 30 s;
3. The pancreatin was sucked out. The culture plate was pleaced in an incubator. Digestion was carried out for about 5 min at 37° C.;
4. 3 mL of complete culture solution was added to the culture plate to stop the digestion. The cells were carefully scoured with micropipette (1 ml) to give a uniform single cell suspension;
5. Cell suspension was counted. The suspension was diluted to 1×10^5/ml. The resulting suspension was developed uniformly on a plate. The plate was incubated under 5% CO2 at 37° C. overnight. In day 2, 80 μL of complete culture medium was added in each well and then 20 μL of culture solution comprising a compound was added. The mixture was incubated for 70 h under 5% CO2 at 37° C.
6. The culture solution was sucked out. 100 uL of TCA fixed cells which were diluted to 10% were added to each well. The plate was kept in a refrigerator for 1 h at 4° C.
7. TCA stationary liquid was sucked out. Each well was washed with 150 μL of ddH2O five times;
8. After the stationary liquid was cleansed, the plate was dried in the air at the room temperature;
9. 60 μL of SRB staining solution was added in each well. The well was stained for 15 min at the room temperature;
10. The SRB staining solution was sucked out. Each well was washed with 150 μL of 1% glacial acetic acid five times;
11. After the SRB staining solution was cleansed, the plate was dried in the air at the room temperature;
12. 100 μL of 10 mM Tris was added in each well. The plate was vibrated to dissolve out SRB;
13. OD values were determined at 570 nM.
as §1
IC50: Concentration of a compound where inhibition ratio was 50%. IC50 values were fitted with Origin7.5.

With `Cc1ccc(COc2ccc(Nc3c(C#N)cnc4cc(O[C@H]5CCOC5)c(NC(=O)/C=C/CN(C)C)cc34)cc2Cl)cc1` [Example 167, (S,E)-N-(4-(4-(4-METHYLBENZYLOXY)-3-CHLOROPHENYLAMINO)-3-CYANO-7-(TETRAHYDROFURAN-3-YL-OXY)QUINOLIN-6-YL)-4-(DIMETHYLAMINO)-BUT-2-ENAMIDE], the inhibition at 1 µM in the test on A431 cells and in the test with BT-474 cells was 75% throughout.
With `CN(C)C/C=C/C(=O)Nc1cc2c(Nc3ccc(OCc4cccc(F)c4)c(Cl)c3)c(C#N)cnc2cc1OC1CCOC1` (mixture of isomers) [Example 180, (E/Z)-N-(4-(4-(3-FLUOROBENZYLOXY)-3-CHLOROPHENYLAMINO)-3-CYANO-7-(TETRAHYDROFURAN-3-YL-OXY)QUINOLIN-6-YL)-4-(DIMETHYLAMINO)-BUT-2-ENAMIDE], the inhibition at 1 µM was 73% in the test on A431 cells and 78% in the test on BT-474 cells.
Taken in the same sequence, the figures for `C#Cc1cccc(Nc2c(C#N)cnc3cc(OC4CCOC4)c(NC(=O)/C=C/CN(C)C)cc23)c1` (mixture of isomers) [Example 177, (E/Z)-N-(3-CYANO-4-(3-ETHYNYLPHENYLAMINO)-7-(TETRAHYDROFURAN-3-YL-OXY)QUINOLIN-6-YL)-4-(DIMETHYLAMINO)-BUT-2-ENAMIDE] were 81% and 87%.
For the compound `CN(C)C/C=C/C(=O)Nc1cc2c(Nc3ccc(F)c(Cl)c3)c(C#N)cnc2cc1OC1CCOC1` (mixture of isomers) [Example 176, (E/Z)-N-(4-(3-CHLORO-4-FLUOROPHENYLAMINO)-3-CYANO-7-(TETRAHYDROFURAN-3-YL-OXY)QUINOLIN-6-YL)-4-(DIMETHYLAMINO)-BUT-2-ENAMIDE], the inhibition at 1 µM is 79% with A431 cells and 89% in the test on BT-474 cells.
